Experimental findings from PubChem BioAssay (NCI) are described below.

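Method: 48-hour compound exposure of cells in 96-well plates, five concentrations, linear interpolation of endpoints. TGI denotes the concentration required for complete inhibition of growth.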

Some test systems named below: HCT-116 colon; HS 578T breast; HT29 colon; IGROV1 ovarian; LOX IMVI melanoma; MOLT-4 leukemia; NCI-H522 lung; SNB-75 CNS; U251 CNS; UO-31 renal.
Holding throughout (test): DTP human tumour cell line panel, 48 h

For `O=C1C(c2c(O)[nH]c3ccc(F)cc23)=Nc2ccccc21`, the TGI was over 100 µM in the assay with HCT-116 colon; over 100 µM with HS 578T breast; over 100 µM in the assay on HT29 colon; over 100 µM in the assay on IGROV1 ovarian; over 100 µM in the assay with LOX IMVI melanoma; 81.5 µM in the assay with MOLT-4 leukemia. Moreover, the TGI was over 100 µM in the assay on NCI-H522 lung, 15.1 µM in the assay on SNB-75 CNS, 42.7 µM in the assay on U251 CNS and over 100 µM in the assay with UO-31 renal.

Take `CCOC1OC(=O)c2cc3ccc4c(c3c(-c3ccc5c(c3)OCO5)c21)OCO4` (stereo not given): the TGI in the assay on HCT-116 colon was 18.6 µM; with HS 578T breast it was over 39.6 µM; in the assay on HT29 colon it was over 100 µM; in the assay with IGROV1 ovarian it was over 100 µM; in the assay with LOX IMVI melanoma, over 100 µM; in the assay with MOLT-4 leukemia it was over 100 µM. Also, the TGI with NCI-H522 lung is 6.9 µM; in the assay with SNB-75 CNS, 15.5 µM; with U251 CNS it was over 100 µM; with UO-31 renal it was over 100 µM.

Take `COc1ccc(P2(=S)OC(C)(C)C(C)(C)O2)cc1`: the TGI in the assay on HCT-116 colon, in the assay on HS 578T breast, in the assay with HT29 colon, with IGROV1 ovarian, in the assay with LOX IMVI melanoma and in the assay with MOLT-4 leukemia was over 100 µM in each case. Further, the TGI in the assay on NCI-H522 lung, in the assay on SNB-75 CNS, in the assay on U251 CNS and in the assay on UO-31 renal was over 100 µM in each case.

In the case of `CN(CC(=O)O)c1ncc2c(n1)CCCC2`, the TGI with HCT-116 colon, in the assay on HS 578T breast, in the assay with HT29 colon, with IGROV1 ovarian, with LOX IMVI melanoma and in the assay with MOLT-4 leukemia was over 100 µM each time. In addition, the TGI with NCI-H522 lung, in the assay on SNB-75 CNS, in the assay on U251 CNS and in the assay on UO-31 renal was over 100 µM each time.

As for `COC(=O)c1ccccc1/C=C1\Cc2ccc(C)c(C)c2C1=O`, the TGI in the assay on HCT-116 colon, with HS 578T breast, in the assay with HT29 colon, in the assay with IGROV1 ovarian, in the assay on LOX IMVI melanoma and with MOLT-4 leukemia was over 100 µM throughout. The TGI in the assay on NCI-H522 lung, in the assay with SNB-75 CNS, in the assay on U251 CNS and with UO-31 renal was over 100 µM in each case.

As for `Cc1cc(S(=O)(=O)Nc2n[nH]c(N)n2)c(SCC(=O)O)cc1Cl`, the TGI in the assay with HCT-116 colon, in the assay with HS 578T breast, in the assay on HT29 colon, in the assay on IGROV1 ovarian, in the assay with LOX IMVI melanoma and in the assay with MOLT-4 leukemia was over 10 µM each time. Moreover, the total growth inhibition concentration (TGI) in the assay with NCI-H522 lung, in the assay on SNB-75 CNS, with U251 CNS and in the assay on UO-31 renal was over 10 µM throughout.

With `O=Cc1[nH]c(=O)[nH]c(=O)c1C(=O)O`, the TGI in the assay with HCT-116 colon, in the assay on HS 578T breast, in the assay with HT29 colon, in the assay with IGROV1 ovarian, in the assay with LOX IMVI melanoma and in the assay on MOLT-4 leukemia was over 100 µM in each case. Further, the TGI in the assay on NCI-H522 lung, in the assay with SNB-75 CNS, in the assay with U251 CNS and in the assay on UO-31 renal was over 100 µM each time.

In the case of `CN1C2CCC1CC(=CCOC(c1ccc(F)cc1)c1ccc(F)cc1)C2`, the TGI came to 24.6 µM in the assay with HCT-116 colon; 27.5 µM in the assay on HS 578T breast; 19.9 µM in the assay with HT29 colon; 30.1 µM in the assay on IGROV1 ovarian; 31.5 µM in the assay on LOX IMVI melanoma; 42.3 µM in the assay on MOLT-4 leukemia. Also, the concentration for total growth inhibition (TGI) in the assay on NCI-H522 lung turned out to be 24.7 µM; with SNB-75 CNS it was 27.1 µM; in the assay with U251 CNS it was 33.2 µM; in the assay with UO-31 renal it was 21.8 µM.

For `Fc1cc(-c2cc(-c3ccccc3)no2)c(Cl)cc1Cl`, the TGI in the assay with HCT-116 colon is over 31.7 µM; in the assay on HS 578T breast, over 88.9 µM; in the assay on HT29 colon it was over 46.7 µM; in the assay on IGROV1 ovarian, over 50.8 µM; in the assay with LOX IMVI melanoma, over 21.2 µM; with MOLT-4 leukemia it was over 47.8 µM. The TGI with NCI-H522 lung is over 34.5 µM; in the assay with SNB-75 CNS, over 54.4 µM; in the assay with U251 CNS it was over 21.7 µM; in the assay on UO-31 renal, over 59.3 µM.

Turning to `CCOC(=O)C12OC(CCC1=O)C(C(=O)OC)=C2C(=O)OC` (stereo not given), the TGI in the assay with HCT-116 colon, in the assay on HS 578T breast, with HT29 colon, in the assay with IGROV1 ovarian, with LOX IMVI melanoma and in the assay on MOLT-4 leukemia was over 10 µM throughout. The total growth inhibition concentration (TGI) in the assay with NCI-H522 lung, with SNB-75 CNS, in the assay with U251 CNS and in the assay with UO-31 renal was over 10 µM each time.

Turning to `CCOC(=O)c1nnc2c(C(=O)OCC)c3ccccc3n2c1N`, the TGI with HCT-116 colon was over 100 µM; in the assay with HS 578T breast it was over 100 µM; in the assay with HT29 colon, over 100 µM; with IGROV1 ovarian it was 38.2 µM; in the assay with LOX IMVI melanoma it was over 100 µM; in the assay with MOLT-4 leukemia, over 100 µM. Besides, the TGI is over 100 µM in the assay with NCI-H522 lung, 67.3 µM in the assay with SNB-75 CNS, over 100 µM in the assay on U251 CNS and over 100 µM in the assay with UO-31 renal.

Regarding `O=C(Oc1ccccn1)c1cc2cc(CCl)ccc2oc1=O`, the TGI with HCT-116 colon was 69.4 µM; in the assay on HS 578T breast it was 59.6 µM; in the assay on HT29 colon, over 100 µM; in the assay with IGROV1 ovarian, over 100 µM; with LOX IMVI melanoma, over 100 µM; in the assay with MOLT-4 leukemia, over 100 µM. For the same compound, the TGI in the assay with NCI-H522 lung was 30.3 µM; in the assay with SNB-75 CNS it was 62.1 µM; in the assay with U251 CNS, 34.7 µM; in the assay on UO-31 renal it was over 100 µM.

As to `C[C@H](CCC(=O)O)[C@H]1CC[C@H]2[C@@H]3CC[C@@H]4C[C@H](O)CC[C@]4(C)[C@H]3C[C@H](O)[C@]12C`, the TGI in the assay on HCT-116 colon is over 100 µM; in the assay with HS 578T breast it was over 100 µM; in the assay on HT29 colon, over 100 µM; in the assay on IGROV1 ovarian it was 86.7 µM; with LOX IMVI melanoma, over 100 µM; in the assay on MOLT-4 leukemia, 62.3 µM. Moreover, the TGI was 86.7 µM in the assay with NCI-H522 lung, over 100 µM in the assay with SNB-75 CNS, over 100 µM in the assay with U251 CNS and over 100 µM in the assay on UO-31 renal.

Regarding `C/C=C(/C)C(=O)O[C@@H]1CCN2CC[C@H](COC(=O)/C(=C/C)CO)C12` (stereo not given in full), the concentration for total growth inhibition (TGI) was over 100 µM with HCT-116 colon; over 93.4 µM in the assay with HS 578T breast; over 31.6 µM with HT29 colon; over 100 µM in the assay on IGROV1 ovarian; over 100 µM with LOX IMVI melanoma; over 100 µM with MOLT-4 leukemia. Besides, the TGI in the assay with NCI-H522 lung, in the assay with SNB-75 CNS, in the assay with U251 CNS and in the assay on UO-31 renal was over 100 µM throughout.

`Cc1nn(-c2ccccc2)c2c1C(c1ccc(Cl)cc1)NC(=S)N2` (stereo not given): the TGI in the assay on HCT-116 colon is over 100 µM; in the assay with HS 578T breast it was over 100 µM; in the assay on HT29 colon it was over 100 µM; in the assay with IGROV1 ovarian, 28.1 µM; with LOX IMVI melanoma, 31.1 µM; in the assay on MOLT-4 leukemia, over 100 µM. In addition, the TGI in the assay on NCI-H522 lung was 37.2 µM; in the assay with SNB-75 CNS, over 100 µM; with U251 CNS it was 48.1 µM; with UO-31 renal it was 28.8 µM.

Turning to `COc1ccc(-[n+]2nc(S(=O)(=O)O)c(/C=C/c3ccc(N(C)C)cc3)cc2C#N)cc1`, the TGI in the assay on HCT-116 colon, with HS 578T breast, with HT29 colon, in the assay with IGROV1 ovarian, with LOX IMVI melanoma and with MOLT-4 leukemia was over 100 µM throughout. In addition, the TGI in the assay on NCI-H522 lung, in the assay on SNB-75 CNS, in the assay on U251 CNS and in the assay on UO-31 renal was over 100 µM throughout.

In general, TGI refers to the concentration giving total growth inhibition.
